How the values were obtained:
human PD-L1 (hPD-L1) = target: T1, human PD-L1 (hPD-L1) (Homo sapiens, UniProt Q9NZQ7); assay: 1H NMR titration experiment with hPD-L1; assay type: binding; settings: molar ratio of protein to inhibitor 1 : 1; PBS pH 7.4, 0.2 mM PD-L1
T1 construct: PD-L1 gene (amino acids 18-134); made in house
Description: The corresponding behaviour is characteristic of hPD-L1 oligomerization, previously observed by our group with BMS reference compounds.[20]
Fig. 2 Aliphatic part of the ^1H NMR spectra of PD-L1 with tetrazole-based inhibitors. ^1H NMR spectra of hPD-L1 protein (blue), PD-L1 and compounds: (A) 10f, (B) 10p, and (C) 10l in protein to inhibitor molar ratios of 1 : 1 (red) and 1 : 10 (green), respectively.
NMR spectra were recorded in PBS pH 7.4 containing 10% (v/v) of D2O added to the samples to provide the lock signal. Water suppression was carried out using the WATERGATE pulse sequence. All the spectra were recorded at 300 K using a Bruker Avance III 600 MHz spectrometer. The spectra were recorded at the protein/ligand at the molar ratio 1:1 and 1:10. The sample were prepared by adding the appropriate amounts of inhibitor, from 50 mM ligand stock solution in DMSO-d6, to the protein solution of PD-L1 at a concentration of 0.2 mM. Spectra were visualized using TopSpin 3.2
Protein expression and purification
E. coli strain BL21 was transformed with pET-21b plasmid carrying PD-L1 gene (amino acids 18-134). The bacteria were cultured in LB at 37°C until OD600nm of 0.6 when the recombinant protein production was induced with 1 mM IPTG. The protein production was continued overnight. Inclusion bodies were collected by centrifugation, washed twice with 50 mM Tris-HCl pH 8.0 containing 200 mM NaCl, 10 mM EDTA, 10 mM 2-mercaptoethanol and 0.5% Triton X-100, followed by a single wash with the same buffer but with no Triton X-100. The washed inclusion bodies were resuspended overnight in 50 mM Tris-HCl pH 8.0, 6 M GuHCl, 200 mM NaCl and 10 mM 2-mercaptoethanol and clarified with centrifugation. Refolding of PD-L1 was performed by drop-wise dilution into 0.1 M Tris-HCl pH 8.0 containing 1 M L-arginine hydrochloride, 0.25 mM oxidized glutathione and 0.25 mM reduced glutathione. […]
7.4. The quality of the refolded protein was evaluated by SDS-PAGE and NMR. […]

PD-1/PD-L1 complex = PD-1/PD-L1 complex (Homo sapiens, UniProt Q9NZQ7); settings: for activity towards dissociating the PD-1/PD-L1 complex: one-point experiment at 50 and 5 nM concentrations of each inhibitor; for IC50: read-out: IC50 (nM), SAR toward PD-L1 based on the HTRF methodology; for IC50 / IC50 (nM), SAR toward PD-L1 based on the HTRF methodology: 5 nM hPD-L1, 50 nM hPD-1, 10f, 10l, 10p IC50 measured with 6 concentrations, remaining compounds estimated from scouting mode (50 and 5 nM) by translation of average Hill's fits
Description: Homogenous Time Resolved Fluorescence
HTRF was performer using the certified Cis-Bio assay according to the manufacturer’s guidelines.
experiments were performed at 5 nM of hPD-L1 and 50 nM of hPD-1 in the final formulation at 20 µL final
After mixing all components according to Cis-Bio protocol, the plate was left for 1h incubation
at room temperature followed by TR-FRET measurement on Tecan Spark 20M. To determine the activity of tested
compounds data was collected for 2 different concentrations of the ligand: 50 nM and 5 nM in the final volume.
All measurements were performed on two individual
dilution series, unless states otherwise. Collected data was background subtracted on the negative control,
normalized on the positive control, averaged and for IC50 determination fitted with normalized Hill’s equation to
determine the IC50 value using Mathematica 12. For remaining compounds, which were measured in scouting
mode, the inhibitory constants were approximated by translation of the average Hill’s fits of fully described
compounds to match the experimental datapoints. Since all compounds reported here are closely related, the slope
of Hill’s fit that determines the shape of the curve is therefore similar across them.

PD-L1 = system: PD-L1; set-up: method as in PMID 35585982; settings: printed in Fig. 1B, patented PD-L1 dimerizers by Maxinovel Pharma; cited from earlier work

Sequence of PD-1/PD-L1 complex (Q9NZQ7 19-238 limits assumed, one chain of several): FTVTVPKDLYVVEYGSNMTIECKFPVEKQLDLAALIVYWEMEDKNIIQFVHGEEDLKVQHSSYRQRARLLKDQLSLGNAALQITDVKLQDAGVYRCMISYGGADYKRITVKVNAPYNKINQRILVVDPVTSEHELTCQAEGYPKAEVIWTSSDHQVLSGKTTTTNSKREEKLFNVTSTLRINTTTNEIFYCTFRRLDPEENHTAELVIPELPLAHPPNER
T1 sequence (Q9NZQ7 18-134): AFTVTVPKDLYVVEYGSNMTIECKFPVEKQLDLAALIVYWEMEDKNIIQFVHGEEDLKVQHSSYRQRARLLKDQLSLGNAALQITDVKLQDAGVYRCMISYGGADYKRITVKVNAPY

Cc1c(/C=C/n2nnnc2CN2CCCOC2)cccc1-c1ccccc1 [10l]
hPD-L1 oligomerization upon addition of the ligand (broadening of hPD-L1 proton signals) (human PD-L1 (hPD-L1)): protein oligomerization | activity towards dissociating the PD-1/PD-L1 complex (PD-1/PD-L1 complex): better activity | IC50 (PD-1/PD-L1 complex): 944 nM

Cc1c(COc2cc(OCc3cccc(C#N)c3)c(CN3C[C@H](O)C[C@@H]3C(=O)O)cc2Cl)cccc1-c1ccc2c(c1)OCCO2 [BMS-1166, reference compound]
undissociated PD-1/PD-L1 complex (PD-1/PD-L1 complex; one-point experiment, 50 and 5 nM concentrations of inhibitor): 42.1 ± 6.4%

Cc1c(/C=C/n2nnnc2CN2CCCCOC2)cccc1-c1ccccc1 [10i]
IC50 (PD-1/PD-L1 complex): 460 nM

Cc1c(/C=C/n2nnnc2CNCCO)cccc1-c1ccc2c(c1)OCCO2 [10q]
IC50 (nM), SAR toward PD-L1 based on the HTRF methodology (PD-1/PD-L1 complex): Inactive

Cc1c(/C=C/n2nnnc2C(CCl)NCc2ccco2)cccc1-c1ccccc1 (centres unmarked) [10c]
IC50 (nM), SAR toward PD-L1 based on the HTRF methodology (PD-1/PD-L1 complex): Inactive

Cc1c(/C=C/n2nnnc2CNCC(C)(C)C)cccc1-c1ccccc1 [10e]
IC50 (nM), SAR toward PD-L1 based on the HTRF methodology (PD-1/PD-L1 complex): Inactive

Cc1c(/C=C/n2nnnc2CN2CCCOC2)cccc1-c1ccc2c(c1)OCCO2 [10r]
IC50 (PD-1/PD-L1 complex): 1130 nM

Cc1c(/C=C/c2cc(CNC(C)(CO)C(=O)O)ccc2C(F)(F)F)cccc1-c1ccc2c(c1)OCCO2 (centres unmarked) [MAX-10181]
IC50 (PD-L1): 18 nM

Cc1c(/C=C/n2nnnc2CNCCCCCO)cccc1-c1ccc2c(c1)OCCO2 [10n]
IC50 (PD-1/PD-L1 complex): 2850 nM

Cc1c(/C=C/n2nnnc2CN2CCOC2)cccc1-c1ccccc1 [10k]
IC50 (PD-1/PD-L1 complex): 1000 nM

Cc1c(/C=C/n2nnnc2C(C)NCCCO)cccc1-c1ccc2c(c1)OCCO2 (centres unmarked) [10p]
hPD-L1 oligomerization upon addition of the ligand (broadening of hPD-L1 proton signals) (human PD-L1 (hPD-L1)): protein oligomerization | activity towards dissociating the PD-1/PD-L1 complex (PD-1/PD-L1 complex): better activity | IC50 (PD-1/PD-L1 complex): 254 nM

Cc1c(/C=C/n2nnnc2CNCCCCCO)cccc1-c1ccccc1 [10j]
IC50 (PD-1/PD-L1 complex): 1840 nM

Cc1c(/C=C/n2nnnc2C(C)NCCCO)cccc1-c1ccccc1 (centres unmarked) [10g]
IC50 (PD-1/PD-L1 complex): 1800 nM

Cc1c(/C=C/n2nnnc2CN[C@]23CC4CC(C[C@@](O)(C4)C2)C3)cccc1-c1ccccc1 [10h]
IC50 (nM), SAR toward PD-L1 based on the HTRF methodology (PD-1/PD-L1 complex): Inactive

Cc1c(/C=C/n2nnnc2CNCCCCO)cccc1-c1ccc2c(c1)OCCO2 [10o]
IC50 (PD-1/PD-L1 complex): 1130 nM

COc1cccc(CNC(c2nnnn2/C=C/c2cccc(-c3ccccc3)c2C)C(C)C)c1OC (centres unmarked) [10b]
IC50 (nM), SAR toward PD-L1 based on the HTRF methodology (PD-1/PD-L1 complex): Inactive

Cc1c(/C=C/n2nnnc2CN[C@]23CC4CC(C[C@@](O)(C4)C2)C3)cccc1-c1ccc2c(c1)OCCO2 [10m]
IC50 (nM), SAR toward PD-L1 based on the HTRF methodology (PD-1/PD-L1 complex): Inactive

CCNCc1nnnn1/C=C/c1cccc(-c2ccccc2)c1C [10f]
hPD-L1 oligomerization upon addition of the ligand (broadening of hPD-L1 proton signals) (human PD-L1 (hPD-L1)): protein oligomerization | activity towards dissociating the PD-1/PD-L1 complex (PD-1/PD-L1 complex): better activity | IC50 (PD-1/PD-L1 complex): 408 nM

Cc1c(/C=C/n2nnnc2C(CC(C)C)NCCN2CCOCC2)cccc1-c1ccccc1 (centres unmarked) [10a]
IC50 (nM), SAR toward PD-L1 based on the HTRF methodology (PD-1/PD-L1 complex): Inactive

Cc1c(/C=C/n2nnnc2C(NCc2ccncc2)C2CC2)cccc1-c1ccccc1 (centres unmarked) [10d]
IC50 (PD-1/PD-L1 complex): 1770 nM
